Measured values as given in the kinase profiling compilation of Christmann-Franck et al. (2016).
“And” between values parts separate entries of the source, which are not always exact repeats. Identical values can stand only once.

Key:
Assay in all cases: radiometric filter-binding kinase assay, Kinase HotSpot
Details in all cases: compound 0.5 µM; ATP 10 µM
[1] = target: PHKG1 (human) (UniProt Q16816)
[2] = target: PNCK (human) (UniProt Q6P2M8)
[3] = target: PAK2 (human) (UniProt Q13177)
[4] = target: CDK9 CCNK (human) (UniProt O75909+P50750)
[5] = target: NTRK3 (human) (UniProt Q16288)
[6] = target: CSNK1G3 (human) (UniProt Q9Y6M4)
[7] = target: JAK1 JH1 catalytic (human) (UniProt P23458)
[8] = target: PTK2 (human) (UniProt Q05397)
[9] = target: TSSK2 (human) (UniProt Q96PF2)
[10] = target: CDK9 CCNT1 (human) (UniProt P50750+O60563)
[11] = target: PRKACA (human) (UniProt P17612)
[12] = target: TEC (human) (UniProt P42680)
[13] = target: CAMK1 (human) (UniProt Q14012)
[14] = target: STK3 (human) (UniProt Q13188)
[15] = target: FLT1 (human) (UniProt P17948)
[16] = target: MARK1 (human) (UniProt Q9P0L2)
[17] = target: CDC42BPA (human) (UniProt Q5VT25)
[18] = target: CDK7 CCNH MNAT1 (human) (UniProt P50613+P51948+P51946)
[19] = target: NUAK2 (human) (UniProt Q9H093)
[20] = target: SRPK3 (human) (UniProt Q9UPE1)
[21] = target: LCK (human) (UniProt P06239)
[22] = target: PKN1 (human) (UniProt Q16512)
[23] = target: MERTK (human) (UniProt Q12866)
[24] = target: MAPKAPK5 (human) (UniProt Q8IW41)
[25] = target: NUAK1 (human) (UniProt O60285)
[26] = target: MAP3K8 (human) (UniProt P41279)
[27] = target: WEE1 (human) (UniProt P30291)
[28] = target: DYRK2 (human) (UniProt Q92630)
[29] = target: CSK (human) (UniProt P41240)
[30] = target: DAPK1 (human) (UniProt P53355)
[31] = target: PAK3 (human) (UniProt O75914)
[32] = target: PTK2B (human) (UniProt Q14289)
[33] = target: LYN (human) (UniProt P07948)
[34] = target: FGFR3 (human) (UniProt P22607)
[35] = target: MAP3K14 (human) (UniProt Q99558)
[36] = target: PRKCH (human) (UniProt P24723)
[37] = target: ACVR1B (human) (UniProt P36896)
[38] = target: CAMK2D (human) (UniProt Q13557)
[39] = target: DMPK (human) (UniProt Q09013)
[40] = target: PDGFRA (human) (UniProt P16234)
[41] = target: GSK3A (human) (UniProt P49840)
[42] = target: EPHA4 (human) (UniProt P54764)

Sequence of DMPK (human) (Q09013 whole entry, looked up): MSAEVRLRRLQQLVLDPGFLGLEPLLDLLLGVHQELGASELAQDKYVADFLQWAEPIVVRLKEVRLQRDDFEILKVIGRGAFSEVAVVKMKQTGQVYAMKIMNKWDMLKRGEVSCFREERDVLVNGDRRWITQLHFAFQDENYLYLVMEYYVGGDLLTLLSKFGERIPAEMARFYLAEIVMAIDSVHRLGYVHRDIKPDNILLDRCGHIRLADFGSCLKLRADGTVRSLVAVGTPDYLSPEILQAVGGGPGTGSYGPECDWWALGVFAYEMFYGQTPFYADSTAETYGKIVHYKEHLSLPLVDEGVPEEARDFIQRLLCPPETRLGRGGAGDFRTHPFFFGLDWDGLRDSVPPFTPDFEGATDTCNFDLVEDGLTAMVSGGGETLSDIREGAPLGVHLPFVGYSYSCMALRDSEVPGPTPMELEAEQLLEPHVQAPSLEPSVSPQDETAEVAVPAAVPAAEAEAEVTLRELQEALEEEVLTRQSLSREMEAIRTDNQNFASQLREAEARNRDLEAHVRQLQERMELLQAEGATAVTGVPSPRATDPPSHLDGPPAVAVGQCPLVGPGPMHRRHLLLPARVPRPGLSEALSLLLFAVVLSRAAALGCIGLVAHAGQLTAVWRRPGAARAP
Sequence of TEC (human) (P42680 whole entry, looked up): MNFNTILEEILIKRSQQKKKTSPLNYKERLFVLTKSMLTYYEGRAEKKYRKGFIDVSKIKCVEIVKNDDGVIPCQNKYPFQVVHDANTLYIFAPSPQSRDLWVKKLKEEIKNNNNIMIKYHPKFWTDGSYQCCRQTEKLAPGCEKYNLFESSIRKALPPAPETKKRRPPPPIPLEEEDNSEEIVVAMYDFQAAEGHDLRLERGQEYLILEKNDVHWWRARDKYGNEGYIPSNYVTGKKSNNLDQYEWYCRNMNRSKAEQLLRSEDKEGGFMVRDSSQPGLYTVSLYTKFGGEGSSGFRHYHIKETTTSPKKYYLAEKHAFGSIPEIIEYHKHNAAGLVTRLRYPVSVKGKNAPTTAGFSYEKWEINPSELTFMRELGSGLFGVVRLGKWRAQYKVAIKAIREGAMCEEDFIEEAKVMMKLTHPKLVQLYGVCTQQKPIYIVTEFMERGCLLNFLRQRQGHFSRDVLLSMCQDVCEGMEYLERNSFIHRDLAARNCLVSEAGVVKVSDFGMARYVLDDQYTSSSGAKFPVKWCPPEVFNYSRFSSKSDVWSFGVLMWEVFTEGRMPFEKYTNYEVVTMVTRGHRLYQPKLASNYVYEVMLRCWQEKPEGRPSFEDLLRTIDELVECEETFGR
Sequence of PAK3 (human) (O75914 whole entry, looked up): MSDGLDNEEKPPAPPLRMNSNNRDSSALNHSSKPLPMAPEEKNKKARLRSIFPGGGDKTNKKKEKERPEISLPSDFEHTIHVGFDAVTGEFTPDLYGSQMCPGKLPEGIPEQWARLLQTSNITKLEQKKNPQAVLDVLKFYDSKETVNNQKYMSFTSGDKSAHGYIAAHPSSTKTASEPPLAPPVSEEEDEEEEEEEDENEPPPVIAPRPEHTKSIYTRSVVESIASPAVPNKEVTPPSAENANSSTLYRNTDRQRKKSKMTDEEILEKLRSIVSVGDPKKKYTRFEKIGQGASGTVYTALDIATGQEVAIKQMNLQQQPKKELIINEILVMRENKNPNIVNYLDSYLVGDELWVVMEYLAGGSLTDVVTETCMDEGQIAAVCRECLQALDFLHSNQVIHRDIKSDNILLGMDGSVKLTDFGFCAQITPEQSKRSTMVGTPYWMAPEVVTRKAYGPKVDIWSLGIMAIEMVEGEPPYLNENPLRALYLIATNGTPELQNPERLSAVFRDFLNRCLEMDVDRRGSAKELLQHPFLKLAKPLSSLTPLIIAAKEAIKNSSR
Sequence of PDGFRA (human) (P16234 whole entry, looked up): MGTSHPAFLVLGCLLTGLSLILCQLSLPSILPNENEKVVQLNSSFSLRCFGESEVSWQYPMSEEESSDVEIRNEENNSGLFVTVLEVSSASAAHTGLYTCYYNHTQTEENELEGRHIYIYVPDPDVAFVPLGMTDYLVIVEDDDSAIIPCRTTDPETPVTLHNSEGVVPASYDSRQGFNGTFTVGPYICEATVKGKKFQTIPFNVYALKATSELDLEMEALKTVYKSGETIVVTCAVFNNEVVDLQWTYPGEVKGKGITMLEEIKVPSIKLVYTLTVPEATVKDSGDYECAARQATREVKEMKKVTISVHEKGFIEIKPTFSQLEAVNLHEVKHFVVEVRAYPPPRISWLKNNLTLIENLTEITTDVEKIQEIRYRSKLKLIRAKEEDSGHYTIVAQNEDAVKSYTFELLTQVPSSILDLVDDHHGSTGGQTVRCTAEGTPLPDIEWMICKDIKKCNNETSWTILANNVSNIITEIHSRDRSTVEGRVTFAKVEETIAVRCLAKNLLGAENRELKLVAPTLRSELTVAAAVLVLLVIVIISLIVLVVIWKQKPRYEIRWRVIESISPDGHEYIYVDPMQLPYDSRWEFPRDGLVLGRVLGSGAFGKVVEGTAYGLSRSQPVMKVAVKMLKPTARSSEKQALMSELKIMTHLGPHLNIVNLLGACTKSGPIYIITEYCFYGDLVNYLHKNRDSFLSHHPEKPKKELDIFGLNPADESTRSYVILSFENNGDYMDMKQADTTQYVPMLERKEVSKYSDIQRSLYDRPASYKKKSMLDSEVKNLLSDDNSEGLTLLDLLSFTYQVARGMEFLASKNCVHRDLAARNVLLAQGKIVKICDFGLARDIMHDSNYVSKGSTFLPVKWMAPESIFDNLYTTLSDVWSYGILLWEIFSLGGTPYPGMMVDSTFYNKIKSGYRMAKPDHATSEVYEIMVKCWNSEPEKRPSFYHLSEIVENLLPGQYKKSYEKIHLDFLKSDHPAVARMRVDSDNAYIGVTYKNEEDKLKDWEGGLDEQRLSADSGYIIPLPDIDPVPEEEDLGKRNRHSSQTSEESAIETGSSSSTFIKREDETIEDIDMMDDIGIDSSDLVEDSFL
Sequence of DAPK1 (human) (P53355 whole entry, looked up): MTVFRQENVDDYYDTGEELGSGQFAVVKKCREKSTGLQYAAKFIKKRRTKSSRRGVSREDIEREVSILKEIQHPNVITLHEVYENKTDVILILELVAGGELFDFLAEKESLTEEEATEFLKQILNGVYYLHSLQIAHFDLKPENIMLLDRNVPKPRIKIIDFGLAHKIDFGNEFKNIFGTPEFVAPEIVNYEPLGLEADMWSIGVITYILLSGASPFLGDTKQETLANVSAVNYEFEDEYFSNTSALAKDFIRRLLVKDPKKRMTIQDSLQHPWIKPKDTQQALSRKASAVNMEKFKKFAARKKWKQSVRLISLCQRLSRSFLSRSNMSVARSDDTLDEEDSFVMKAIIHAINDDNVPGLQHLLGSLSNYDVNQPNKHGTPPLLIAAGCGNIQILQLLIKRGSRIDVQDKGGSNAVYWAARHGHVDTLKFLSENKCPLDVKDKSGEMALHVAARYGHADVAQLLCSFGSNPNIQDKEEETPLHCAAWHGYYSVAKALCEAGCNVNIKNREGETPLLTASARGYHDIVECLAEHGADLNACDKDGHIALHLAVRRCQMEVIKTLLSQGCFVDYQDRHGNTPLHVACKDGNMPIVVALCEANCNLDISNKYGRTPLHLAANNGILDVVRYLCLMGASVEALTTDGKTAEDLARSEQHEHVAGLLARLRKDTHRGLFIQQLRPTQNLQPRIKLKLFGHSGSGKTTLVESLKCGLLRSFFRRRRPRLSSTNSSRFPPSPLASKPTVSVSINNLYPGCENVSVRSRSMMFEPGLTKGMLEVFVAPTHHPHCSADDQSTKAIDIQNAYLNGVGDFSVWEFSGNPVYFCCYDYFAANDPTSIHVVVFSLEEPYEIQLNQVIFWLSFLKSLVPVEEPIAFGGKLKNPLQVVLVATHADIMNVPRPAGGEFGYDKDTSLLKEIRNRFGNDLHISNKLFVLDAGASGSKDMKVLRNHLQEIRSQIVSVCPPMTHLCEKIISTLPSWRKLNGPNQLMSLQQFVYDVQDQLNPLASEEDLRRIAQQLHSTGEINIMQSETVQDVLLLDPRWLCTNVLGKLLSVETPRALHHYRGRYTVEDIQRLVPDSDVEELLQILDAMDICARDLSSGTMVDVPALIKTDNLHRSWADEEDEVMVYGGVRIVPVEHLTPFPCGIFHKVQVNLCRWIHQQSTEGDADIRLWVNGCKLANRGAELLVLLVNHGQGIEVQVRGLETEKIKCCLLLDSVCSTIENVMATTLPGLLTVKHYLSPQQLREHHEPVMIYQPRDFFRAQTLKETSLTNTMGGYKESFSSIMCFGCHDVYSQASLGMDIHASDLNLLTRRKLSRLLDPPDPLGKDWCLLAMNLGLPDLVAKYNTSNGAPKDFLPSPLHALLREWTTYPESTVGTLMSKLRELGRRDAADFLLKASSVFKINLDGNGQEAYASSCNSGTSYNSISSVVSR
Sequence of PNCK (human) (Q6P2M8 whole entry, looked up): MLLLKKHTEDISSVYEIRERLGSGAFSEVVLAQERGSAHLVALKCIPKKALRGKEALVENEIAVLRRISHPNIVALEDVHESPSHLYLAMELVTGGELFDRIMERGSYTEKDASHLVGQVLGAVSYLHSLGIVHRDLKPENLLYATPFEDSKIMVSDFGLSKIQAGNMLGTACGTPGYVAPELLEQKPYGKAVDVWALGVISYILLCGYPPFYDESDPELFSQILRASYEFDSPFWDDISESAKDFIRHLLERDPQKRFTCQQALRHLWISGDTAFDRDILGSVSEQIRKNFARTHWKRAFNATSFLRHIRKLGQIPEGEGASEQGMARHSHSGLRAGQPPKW
Sequence of CAMK1 (human) (Q14012 whole entry, looked up): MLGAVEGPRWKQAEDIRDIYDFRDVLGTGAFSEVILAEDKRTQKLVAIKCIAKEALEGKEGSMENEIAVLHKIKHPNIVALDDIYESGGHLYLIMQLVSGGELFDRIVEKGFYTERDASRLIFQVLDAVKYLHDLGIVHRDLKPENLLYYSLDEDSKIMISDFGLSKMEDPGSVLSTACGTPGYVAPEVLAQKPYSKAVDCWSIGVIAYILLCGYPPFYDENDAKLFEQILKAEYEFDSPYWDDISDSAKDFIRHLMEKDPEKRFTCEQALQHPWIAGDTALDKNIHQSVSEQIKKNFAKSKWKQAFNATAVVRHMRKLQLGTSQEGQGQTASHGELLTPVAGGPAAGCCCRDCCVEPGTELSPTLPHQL

## Nc1n[nH]c2nnc(-c3c(-c4ccccc4)nn4ccccc34)cc12
[1]
  residual activity: 101%
[2]
  residual activity: 99.6%
[3]
  residual activity: 100%
[4]
  residual activity: 98.5%
[5]
  residual activity: 76.6%
[6]
  residual activity: 104%
[7]
  residual activity: 104%
[8]
  residual activity: 99.2%
[9]
  residual activity: 104%
[10]
  residual activity: 97.3%
[11]
  residual activity: 97.7%
[12]
  residual activity: 96.1%
[13]
  residual activity: 102%
[14]
  residual activity: 102%
[15]
  residual activity: 96.7%
[16]
  residual activity: 98%
[17]
  residual activity: 89.7%
[18]
  residual activity: 99%
[19]
  residual activity: 87.3%
[20]
  residual activity: 88.9%
[21]
  residual activity: 95.1%
[22]
  residual activity: 98.2%
[23]
  residual activity: 76.4%
[24]
  residual activity: 97.7%
[25]
  residual activity: 92.5%
[26]
  residual activity: 95%
[27]
  residual activity: 92.4%
[28]
  residual activity: 103%
[29]
  residual activity: 98%
[30]
  residual activity: 95.9%
[31]
  residual activity: 100%
[32]
  residual activity: 95.4%
[33]
  residual activity: 94.9% and 97.1%
[34]
  residual activity: 102%
[35]
  residual activity: 102%
[36]
  residual activity: 77.2%
[37]
  residual activity: 107%
[38]
  residual activity: 96.5%
[39]
  residual activity: 103%
[40]
  residual activity: 99.7%
[41]
  residual activity: 81.2%
[42]
  residual activity: 85.9%

## CSc1nc(-c2ccc(F)cc2)c(-c2ccnc(NC(C)c3ccccc3)c2)[nH]1 (stereo not drawn)
[1]
  residual activity: 91.8%
[2]
  residual activity: 92.9%
[3]
  residual activity: 104%
[4]
  residual activity: 91.1%
[5]
  residual activity: 93.6%
[6]
  residual activity: 58.4%
[7]
  residual activity: 104%
[8]
  residual activity: 99.1%
[9]
  residual activity: 78.2%
[10]
  residual activity: 99.1%
[11]
  residual activity: 96%
[12]
  residual activity: 120%
[13]
  residual activity: 96.2%
[14]
  residual activity: 88.8%
[15]
  residual activity: 71.5%
[16]
  residual activity: 95.3%
[17]
  residual activity: 97.5%
[18]
  residual activity: 97.2%
[19]
  residual activity: 86.5%
[20]
  residual activity: 92.8%
[21]
  residual activity: 102%
[22]
  residual activity: 105%
[23]
  residual activity: 93.1%
[24]
  residual activity: 115%
[25]
  residual activity: 94.3%
[26]
  residual activity: 88.6%
[27]
  residual activity: 76.1%
[28]
  residual activity: 96.1%
[29]
  residual activity: 82.4%
[30]
  residual activity: 101%
[31]
  residual activity: 94.5%
[32]
  residual activity: 100%
[33]
  residual activity: 89.4% and 98.5%
[34]
  residual activity: 83.7%
[35]
  residual activity: 127%
[36]
  residual activity: 94.5%
[37]
  residual activity: 95.9%
[38]
  residual activity: 99.3%
[39]
  residual activity: 80%
[40]
  residual activity: 102%
[41]
  residual activity: 94.1%
[42]
  residual activity: 93.1%

## CCCNC(=O)Nc1ccc(Oc2ncnc3cc(OC)c(OC)cc23)cc1Cl
[1]
  residual activity: 91.3%
[2]
  residual activity: 95.4%
[3]
  residual activity: 81.4%
[4]
  residual activity: 103%
[5]
  residual activity: 89%
[6]
  residual activity: 105%
[7]
  residual activity: 99.2%
[8]
  residual activity: 99.6%
[9]
  residual activity: 98.7%
[10]
  residual activity: 98%
[11]
  residual activity: 99.7%
[12]
  residual activity: 119%
[13]
  residual activity: 96.7%
[14]
  residual activity: 85%
[15]
  residual activity: 65.2%
[16]
  residual activity: 97.6%
[17]
  residual activity: 77.8%
[18]
  residual activity: 119%
[19]
  residual activity: 123%
[20]
  residual activity: 95.8%
[21]
  residual activity: 81.8%
[22]
  residual activity: 99.1%
[23]
  residual activity: 67.7%
[24]
  residual activity: 92.2%
[25]
  residual activity: 92.3%
[26]
  residual activity: 104%
[27]
  residual activity: 92.9%
[28]
  residual activity: 108%
[29]
  residual activity: 100%
[30]
  residual activity: 104%
[31]
  residual activity: 94.7%
[32]
  residual activity: 88%
[33]
  residual activity: 75.5% and 94.1%
[34]
  residual activity: 84.5%
[35]
  residual activity: 109%
[36]
  residual activity: 101%
[37]
  residual activity: 99.6%
[38]
  residual activity: 89.4%
[39]
  residual activity: 100%
[40]
  residual activity: 92.2%
[41]
  residual activity: 98.8%
[42]
  residual activity: 93.4%

## CC(C)n1cnc2c(Nc3cccc(Cl)c3)nc(NCCO)nc21
[1]
  residual activity: 75.8%
[2]
  residual activity: 100%
[3]
  residual activity: 106%
[4]
  residual activity: 86.9%
[5]
  residual activity: 30.7%
[6]
  residual activity: 6.89%
[7]
  residual activity: 103%
[8]
  residual activity: 68.9%
[9]
  residual activity: 107%
[10]
  residual activity: 87.4%
[11]
  residual activity: 99.5%
[12]
  residual activity: 113%
[13]
  residual activity: 71.2%
[14]
  residual activity: 94.6%
[15]
  residual activity: 93.4%
[16]
  residual activity: 87.6%
[17]
  residual activity: 83.9%
[18]
  residual activity: 78.5%
[19]
  residual activity: 89.8%
[20]
  residual activity: 47.7%
[21]
  residual activity: 84.9%
[22]
  residual activity: 101%
[23]
  residual activity: 89.7%
[24]
  residual activity: 68.6%
[25]
  residual activity: 67.3%
[26]
  residual activity: 92.2%
[27]
  residual activity: 98.9%
[28]
  residual activity: 93.9%
[29]
  residual activity: 98.2%
[30]
  residual activity: 78.8%
[31]
  residual activity: 96.7%
[32]
  residual activity: 85%
[33]
  residual activity: 80.2% and 94.6%
[34]
  residual activity: 95.1%
[35]
  residual activity: 97.4%
[36]
  residual activity: 99.4%
[37]
  residual activity: 101%
[38]
  residual activity: 84.2%
[39]
  residual activity: 98.5%
[40]
  residual activity: 96.4%
[41]
  residual activity: 103%
[42]
  residual activity: 87.5%
